What all share (assay type): cell-based
For one test, the target named is T1, PDE3A-SLFN12 complex (Homo sapiens, UniProt Q14432).
T1 construct: immunoprecipitated endogenous PDE3A; endogenous in cells; host or cells: HeLa cells, parental or AIP CRISPR knockout; PDE3A is endogenous; SLFN12 is ectopically expressed
In words: PDE3A immunoprecipitation / immunoblot for PDE3A-SLFN12 complex formation in HeLa cells. Conditions: for complex formation between PDE3A and FLAG-tagged SLFN12 with AIP knocked out (FIG. 8B) / complex formation between PDE3A and FLAG-tagged SLFN12 (FIG. 8B): HeLa cells, anti-PDE3A pull down, 10 μM compound; for complex formation between PDE3A and FLAG-tagged SLFN12 with AIP knocked out (FIG. 8B): AIP Crispr knockout (KO sg2, KO sg3). The procedure:
Because decreased PDE3A protein expression could impact DNMDP-induced PDE3A-SLFN12 complex formation, the effects of AIP knockout on this complex formation were also measured. As there is no good antibody for SLFN12 protein, we ectopically expressed V5-tagged SLFN12 in parental or AIP-knockout HeLa cells, immunoprecipitated endogenous PDE3A, and assessed whether V5-SLFN12 could be detected in the immunoprecipatites. Cells were plated in 10 cm petri dishes and collected at 50-90% confluence. For PDE3A immunoblotting in biomarker positive cells and in AIP KO cells, cells were seeded in 15 cm plates at similar density as in viability assays with a vessel scaling factor of 5000, e.g., 500 cells per well was scaled to 10^6 cells per 10 cm plate or 2.5×10^6 cells per 15 cm plate, and then cultured for 72 hours before collection. Cell pellets were lysed at 4° C. for 20 minutes in modified RIPA buffer (150 mM NaCl, 10% glycerol, 50 mM Tris-Cl pH 8.0, 50 mM MgCl2, 1% NP-40) supplemented with EDTA-free protease inhibitors (Sigma-Aldrich 4693159001) and PhosSTOP phosphatase inhibitors (Sigma-Aldrich 4906837001). Lysates were clarified by centrifugation at 13,000 rpm×10 min at 4° C. and quantified using BCA protein assays (Thermo Fisher Scientific 23225). Clarified lysates were resolved on 4-12% Bis-Tris PAGE gels, transferred to nitrocellulose membranes (Thermo Fisher Scientific IB23001) and immunoblotted with primary antibodies against PDE3A (Bethyl 302-740A, 1:2000), V5 (Life Technologies R96205 at 1:5,000), AIP (Thermo Fisher Scientific MA3-16515 at 1:2000), Vinculin (Sigma-Aldrich V9264 at 1:5,000), GAPDH (Cell Signaling Technology 2118 at 1:2000) and secondary antibodies from LiCOR Biosciences (92632210 and 926068021, each at 1:10,000). Blots were washed and imaged using a LiCOR Odyssey infrared imager, and fluorescent signals quantified using the Image Studio software provided by the LiCOR manufacturer.

A further test concerns HeLa cells. In words: 72 h Cell Titer Glo viability, HeLa. Details: AUC: unit not given beside the values. The method, then:
(§1) To measure cancer cell death in response to 6-(4-(diethylamino)-3-nitrophenyl)-5-methyl-4,5-dihydropyridazin-3(2H)-one (DN/DP) treatment, cells were plated in 384w assay plates at the following cell density per well: 500 cells of HeLa (DMEM), A2058 (DMEM), HMCB (EMEM), IGR37 (DMEM), NCIH1734 (RPMI), 750 cells of CAL51 (DMEM), COL0741 (RPMI), DKMG (RPMI), GB1 (EMEM), HEL (RPMI), HEL9217 (RPMI), JHUEM1 (DMEM+F12), L3.3 (RPMI) and TE4 (RPMI), HCC15 (RPMI), UACC257 (RPMI), 1000 cells for HUT78 (IMEM), NCIH1563 (RPMI), NCIH2122 (RPMI), NCIH2172 (RPMI), RVH421 (RPMI) and SKMEL3 (McCoy's 5A), 1500 cells for C32 (EMEM), HS578T (DMEM) and JHOM1 (DMEM+F12). Cells were incubated at 37° C. overnight and then treated with a DNMDP dose dilution series using an HP D300 digital dispenser. After 72 hours, the viability of cells in each well were measured by Cell Titer Glo (Promega G755B and G756B). Percent viability values were determined using the values from untreated wells and AUC values were calculated using a 4-parameter fit. DNMDP was purchased from Life Chemicals (F1638-0042) and trequinsin was purchased from Sigma-Aldrich (T2057).
(§2) PDE3A CRISPR KO cells (sgRNA #2) were generated according to de Waal et al, 2016 (2), hereby incorporated by reference in its entirety. CRISPR target sites for PDE3B and AIP were identified using the CHOPCHOP CRISPR Design Tool (chopchop.cbu.uib.no). For cloning of sgRNAs, forward and reverse oligos were annealed, phosphorylated and ligated into a BsmBI-digested lentiCRISPRv2 vector. Lentivirus carrying each guide construct was packaged as described above and used to infect target cells. Transduced target cells were selected using 1 μg/ml puromycin and passaged for 7 days before use.
On the technique in general: In ATP-based viability assays light output follows the ATP content of the culture.

For test [1], the system named is A2058 and SKMEL3 cells with CRISPR KO of SLFN12. In words: 72 h Cell Titer-Glo survival of cells with CRISPR KO of SLFN12. Conditions: CRISPR KO of SLFN12 (sg4). The method, then:
A2058 and SKMEL3 are representative melanoma cell lines. Survival is measured with a 72 h Cell Titer-Glo assay and CRISPR was performed with sg4, SLFN12 CRISPR guide RNA #4.
as §2
FIG. 3A illustrates the survival of cells in the presence of DNMDP that have had CRISPR knockout of SLFN12. FIG. 3B illustrates the survival of cells in the presence of DNMDP that have had CRISPR knockout of PDE3A (with and without ectopic expression of PDE3B). […] The survival in FIGS. 3A and 3B was measured with a 72 h Cell Titer-Glo assay and CRISPR was performed with sg4, SLNF12 CRISPR guide RNA #4.

Test [2] has as its system RVH421 melanoma cell line. The test can be described thus: 72 h Cell Titer Glo viability, RVH421. The procedure:
as §1

The subject of another test is HMCB melanoma cell line. The test can be described thus: 72 h Cell Titer Glo viability, HMCB. Also noted: unit not given beside the values. The note with it: 72 h Cell Titer Glo dose response, AUC on a scale from 0-4. The method, then: as §1
Another test concerns A2058 melanoma cell line. The test can be described thus: 72 h Cell Titer Glo viability, A2058. Also noted: unit not given beside the values. Conditions: 72 h Cell Titer Glo dose response, AUC on a scale from 0-4. The method, then: as §1
PDE3A CRISPR KO cells (sgRNA #2) were generated according to de Waal et al, 2016 (2), hereby incorporated by reference in its entirety. CRISPR target sites for PDE3B and AIP were identified using the CHOPCHOP CRISPR Design Tool (chopchop.cbu.uib.no). […]

Test [3] has as its system SKMEL3 melanoma cell line. The test can be described thus: 72 h Cell Titer Glo viability, SKMEL3. Details: unit not given beside the values. The note with it: 72 h Cell Titer Glo dose response, AUC on a scale from 0-4. The method, then:
as §1

For test [4], the system named is COLO741 melanoma cell line. The test can be described thus: 72 h Cell Titer Glo viability, COLO741. Also noted: unit not given beside the values. Conditions: 72 h Cell Titer Glo dose response, AUC on a scale from 0-4. The method, then:
as §1

Another test deals with C32 melanoma cell line. In words: 72 h Cell Titer Glo viability, C32. Also noted: AUC: unit not given beside the values. The procedure:
as §1

For a further test, the system named is IGR37 melanoma cell line. In words: 72 h Cell Titer Glo viability, IGR37. Also noted: unit not given beside the values. Conditions: 72 h Cell Titer Glo dose response, AUC on a scale from 0-4. The procedure:
as §1

Test [5] relates to UACC257 melanoma cell line. The test can be described thus: 72 h Cell Titer Glo viability, UACC257. Details: AUC: unit not given beside the values. The method, then:
as §1

Two compounds from US12325880B2, “Identification of PDE3 modulator responsive cancers” (THE BROAD INSTITUTE, INC., priority 2018, dated 2025) can be followed below.

T1 sequence (Q14432 whole entry): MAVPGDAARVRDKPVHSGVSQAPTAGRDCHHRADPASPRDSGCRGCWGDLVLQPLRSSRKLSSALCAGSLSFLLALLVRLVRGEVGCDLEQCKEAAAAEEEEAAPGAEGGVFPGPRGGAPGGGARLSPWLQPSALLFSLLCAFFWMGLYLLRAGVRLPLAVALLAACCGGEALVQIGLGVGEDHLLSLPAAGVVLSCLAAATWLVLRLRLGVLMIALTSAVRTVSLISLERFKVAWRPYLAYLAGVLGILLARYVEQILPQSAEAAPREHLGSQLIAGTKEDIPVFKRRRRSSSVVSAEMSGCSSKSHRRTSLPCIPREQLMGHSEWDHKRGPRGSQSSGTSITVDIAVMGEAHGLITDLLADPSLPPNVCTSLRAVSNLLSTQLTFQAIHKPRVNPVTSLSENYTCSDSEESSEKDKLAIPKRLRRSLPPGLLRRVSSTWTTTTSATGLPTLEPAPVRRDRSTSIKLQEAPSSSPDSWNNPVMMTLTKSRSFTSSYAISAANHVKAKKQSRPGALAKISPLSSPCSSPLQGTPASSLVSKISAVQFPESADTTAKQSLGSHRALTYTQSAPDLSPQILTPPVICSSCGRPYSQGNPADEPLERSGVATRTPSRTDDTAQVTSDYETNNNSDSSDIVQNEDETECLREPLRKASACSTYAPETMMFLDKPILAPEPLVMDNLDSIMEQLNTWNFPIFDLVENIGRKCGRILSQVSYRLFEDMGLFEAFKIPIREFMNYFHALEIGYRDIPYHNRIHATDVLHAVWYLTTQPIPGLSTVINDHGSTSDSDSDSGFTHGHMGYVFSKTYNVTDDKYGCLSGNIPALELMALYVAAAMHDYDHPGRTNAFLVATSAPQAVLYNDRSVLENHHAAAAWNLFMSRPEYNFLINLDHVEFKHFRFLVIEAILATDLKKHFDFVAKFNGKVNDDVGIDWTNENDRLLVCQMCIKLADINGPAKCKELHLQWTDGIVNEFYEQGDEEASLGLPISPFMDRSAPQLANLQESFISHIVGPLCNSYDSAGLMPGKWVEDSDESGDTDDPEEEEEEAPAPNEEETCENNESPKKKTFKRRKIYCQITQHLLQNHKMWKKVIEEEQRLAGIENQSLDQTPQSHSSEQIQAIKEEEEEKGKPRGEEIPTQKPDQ
T1 sequence (Q8IYM2 whole entry partner): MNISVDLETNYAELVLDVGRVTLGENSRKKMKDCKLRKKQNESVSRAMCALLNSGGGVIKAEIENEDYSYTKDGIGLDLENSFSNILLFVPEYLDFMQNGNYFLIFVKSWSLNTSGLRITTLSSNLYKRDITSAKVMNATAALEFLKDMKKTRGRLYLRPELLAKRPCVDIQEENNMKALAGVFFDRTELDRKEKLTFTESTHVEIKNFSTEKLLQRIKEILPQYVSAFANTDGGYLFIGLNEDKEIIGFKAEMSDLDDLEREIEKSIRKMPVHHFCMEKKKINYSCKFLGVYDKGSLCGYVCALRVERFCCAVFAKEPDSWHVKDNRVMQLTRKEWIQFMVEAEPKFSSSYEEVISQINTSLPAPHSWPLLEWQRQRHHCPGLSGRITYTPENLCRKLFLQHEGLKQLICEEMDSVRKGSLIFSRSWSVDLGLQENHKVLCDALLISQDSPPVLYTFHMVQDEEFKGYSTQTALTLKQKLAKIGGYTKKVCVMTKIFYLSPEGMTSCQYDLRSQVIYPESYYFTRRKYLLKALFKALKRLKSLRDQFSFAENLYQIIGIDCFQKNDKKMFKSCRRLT

In the case of `C[C@@H]1OC(=O)NN=C1c1ccc(-c2ccc(F)cc2)c(C(F)(F)F)c1` [Compound X, (6S)-5-[4′-fluoro-2-(trifluoromethyl)biphenyl-4-yl]-6-methyl-3,6-dihydro-2H-1,3,4-oxadiazin-2-one], at PDE3A-SLFN12 complex, the “complex formation between PDE3A and FLAG-tagged SLFN12 with AIP knocked out (FIG. 8B)” value is on record as “not observed”; the “complex formation between PDE3A and FLAG-tagged SLFN12 (FIG. 8B)” value is listed as “induced”. In addition, the “cancer cell killing in cells lacking AIP (FIG. 8A)” value in the test on HeLa cells (HeLa cells having an AIP knock out (KOsg2, KOsg3)) is reported as “no cancer cell killing was observed”. Also, the “cervical cancer cell viability (FIG. 8A)” value in the test on HeLa cells (HeLa cells, increasing concentrations) is reported as “reduced at increasing concentrations”.

Regarding `CCN(CC)c1ccc(C2=NNC(=O)CC2C)cc1[N+](=O)[O-]` (stereo not shown) [DNMDP, 6-(4-(diethylamino)-3-nitrophenyl)-5-methyl-4,5-dihydropyridazin-3(2H)-one], the “sensitivity after SLFN12 knockout (FIG. 3A)” value in test [1] is listed as “SLFN12 knockout abrogates all measured sensitivity”. The AUC in test [2] (RVH421 (melanoma, PDE3B/SLFN12 biomarker-positive), 72 h Cell Titer Glo dose response, AUC on a scale from 0-4) turned out to be 3.02; in the test with HMCB melanoma cell line it was 1.85; with A2058 melanoma cell line it was 2.11; in test [3] it was 1.74; in test [4], 1.19; in the test on HeLa cells (HeLa (cervical), 72 h Cell Titer Glo dose response, AUC on a scale from 0-4) it was 0.36. For the same compound, the AUC is recorded as 3.13 with C32 melanoma cell line (C32 (melanoma), 72 h Cell Titer Glo dose response, AUC on a scale from 0-4); 1.17 with IGR37 melanoma cell line; 4.00 in [5] (UACC257 (melanoma, lacks AIP expression), 72 h Cell Titer Glo dose response, AUC on a scale from 0-4). The “sensitivity of cell line (dose response, FIG. 2A)” value in test [2] (RVH421 cells, 72 h Cell Titer-Glo) is “only partially sensitive”; with C32 melanoma cell line (C32 cells, 72 h Cell Titer-Glo), “only partially sensitive”; in [5] (UACC257 cells, 72 h Cell Titer-Glo) it was “completely insensitive”. The “PDE3A-SLFN12 complex formation after AIP knockout (FIG. 7)” value at PDE3A-SLFN12 complex (AIP-knockout HeLa cells, V5-tagged SLFN12, PDE3A immunoprecipitates, 10 μM) was “completely abolished”. Further, at PDE3A-SLFN12 complex, the “complex formation between PDE3A and FLAG-tagged SLFN12 with AIP knocked out (FIG. 8B)” value was “not observed”. Further, the “complex formation between PDE3A and FLAG-tagged SLFN12 (FIG. 8B)” value on PDE3A-SLFN12 complex is listed as “induced”. In addition, the “cell response after AIP knockout (FIG. 6A)” value with HeLa cells (HeLa cells, AIP CRISPR knockout with independent gRNAs, 72-hour Cell Titer-Glo) is “AIP knockout eliminates HeLa cell response”. The “sensitivity in PDE3A knockout cells with ectopic PDE3B expression (FIG. 3B)” value in the test with HeLa cells (PDE3A knockout HeLa cells, ectopic expression of PDE3B, 72 h Cell Titer-Glo) is listed as “support DNMDP sensitivity”.
